In brackets after ≈: the same amount, converted by molar mass. Entries after “also recorded” stand apart in the source; their conditions may differ.
How the values were obtained:
HeLa cells = test: MTT antiproliferative assay, HeLa; format: cell-based, human; conditions: for inhibition at 10 µM / inhibition at 30 µM: Homo sapiens, HeLa, 72 h, values <20% considered negligible, read-out: Growth inhibition (%) ± SEM, HeLa; for Antiproliferative effect on HeLa, in words: 10 and 30 μM
How it was run: (§1)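 We measured growth inhibition using a standard MTT method: cultures in supplemented minimal essential medium received test agents (10 μM, 30 μM) for 72 h, MTT was then added for a further 4 h, and optical density of the formazan was recorded at 545 nm.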

SiHa cells = test: MTT antiproliferative assay, SiHa; format: cell-based, human; conditions: for inhibition at 10 µM / inhibition at 30 µM: Homo sapiens, SiHa, 72 h, values <20% considered negligible, read-out: Growth inhibition (%) ± SEM, SiHa
How it was run: as §1

MCF-7 cells = test: MTT antiproliferative assay, MCF-7; format: cell-based, human; conditions: for inhibition at 10 µM / inhibition at 30 µM: Homo sapiens, 72 h, values <20% considered negligible, read-out: Growth inhibition (%) ± SEM, MCF-7; for inhibition at 10 µM: MCF7, 10 μM; for inhibition at 30 µM: MCF7, 30 μM; for Antiproliferative effect / selectivity on MCF-7, in words: 10 and 30 μM
How it was run: as §1

A2780 cells = test: MTT antiproliferative assay, A2780; format: cell-based, human; conditions: for inhibition at 10 µM / inhibition at 30 µM: Homo sapiens, 72 h, values <20% considered negligible, read-out: Growth inhibition (%) ± SEM, A2780; for inhibition at 10 µM: A2780, 10 μM; for inhibition at 30 µM: A2780, 30 μM
How it was run: as §1

NIH/3T3 fibroblasts = test: MTT assay on fibroblasts (selectivity); format: cell-based, murine; conditions: Mus musculus, 72 h, values <20% considered negligible, read-out: Growth inhibition (%) ± SEM, NIH/3T3; for inhibition at 10 µM: NIH3T3, 10 μM; for inhibition at 30 µM: NIH3T3, 30 μM
How it was run: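 Cells seeded at 5000 cells/well, treated next day with compounds at 10 μM and 30 μM for 72 h at 37 °C, 5% CO2 in EMEM with 10% FBS. MTT added for 4 h, formazan dissolved in DMSO, absorbance read at 545 nm; cisplatin as reference.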

[1] = Kinetic aqueous solubility; format: physicochemical; conditions: for solubility kinetic at 2 h: phosphate buffered saline with 5% DMSO, aqueous with cosolvent or surfactant or cyclodextrin, kinetic from dmso stock, after 2 h, at 37 °C in PBS, pH 7.4, 5% DMSO, target concentration 500 μM, mean ± S.E.M, n = 3; for Kinetic aqueous solubility, category in words: PBS pH 7.4, 37 °C, 2 h
How it was run: (§2)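 Kinetic solubility: filtrates quantified by HPLC-DAD-MS against 5–500 μM calibration, target concentration 500 μM. PAMPA-GI: pH 6.5 phosphate donor, pH 7.4 PBS/5% DMSO acceptor, phosphatidylcholine/cholesterol 2:1 in dodecane membrane, 4 h at 37 °C; Pe and membrane retention calculated from HPLC-DAD-MS concentrations.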

[2] = Intestinal-specific parallel artificial membrane permeability assay (PAMPA-GI); format: in vitro ADME; conditions: for Papp at 4 h, 500 µM: PAMPA, read-out: PAMPA-GI Pe; for Papp at 4 h, 500 µM / PAMPA-GI MR (membrane retention): gradient pH system (pH donor 6.5 → pH acceptor 7.4) after 4 h, at 37 °C, mean ± S.E.M, n = 3; for Intestinal-specific permeability (Pe), category in words: PAMPA-GI
How it was run: as §2

| Structure (SMILES) | solubility kinetic at 2 h [1] | Papp at 4 h, 500 µM [2] | PAMPA-GI MR (membrane retention) [2] | melting point | Kinetic aqueous solubility, category in words [1] | Intestinal-specific permeability (Pe), category in words [2] | inhibition at 10 µM (HeLa cells) | inhibition at 30 µM (HeLa cells) | inhibition at 10 µM (SiHa cells) | inhibition at 30 µM (SiHa cells) | inhibition at 10 µM (MCF-7 cells) | inhibition at 30 µM (MCF-7 cells) | inhibition at 10 µM (A2780 cells) | inhibition at 30 µM (A2780 cells) | inhibition at 10 µM (NIH/3T3 fibroblasts) | inhibition at 30 µM (NIH/3T3 fibroblasts) | Antiproliferative effect on SiHa, in words (SiHa cells; 10 and 30 μM) | Antiproliferative effect / selectivity on MCF-7, in words (MCF-7 cells) | Antiproliferative effect on HeLa, in words (HeLa cells) | Antiproliferative effect on A2780, in words (A2780 cells; 10 and 30 μM) |
| --- | --- | --- | --- | --- | --- | --- | --- | --- | --- | --- | --- | --- | --- | --- | --- | --- | --- | --- | --- | --- |
| COC(=O)[C@]1(C)CCC[C@@]2(C)C3CC[C@]4(O)C[C@@]3(CCC21)[C@@H](O)[C@]4(O)CN(C)Cc1ccccc1 (stereo partly drawn) [Compound 6, (4R,6aR,7R,8R,9S,11bS)-Methyl 8-((Benzyl(methyl)amino)methyl)-7,8,9-trihydroxy-4,11b-dimethyltetradecahydro-6a,9-methanocyclohepta[a]naphthalene-4-carboxylate] | 114 ± 16 µM (≈ 55.5 µg/mL) | 0.23 ± 0.08 ×10⁻⁶ cm/s | 67.3 ± 8.6% | 162 to 166 °C |  |  | < 20% | < 20% | < 20% | < 20% | < 20% | 51.7 ± 2.54% | 25.7 ± 2.7% | 63.7 ± 1.98% | < 20% | 89.3 ± 2.62% |  |  |  |  |
| CC[C@@H](NC[C@@]1(O)[C@H](O)[C@@]23CCC4[C@@](C)(CCC[C@@]4(C)C(=O)OC)C2CC[C@]1(O)C3)c1ccccc1 (stereo partly drawn) [Compound 15, (4R,6aR,7R,8R,9S,11bS)-Methyl 7,8,9-Trihydroxy-4,11b-dimethyl-8-((((R)-1-phenylpropyl)amino)methyl)tetradecahydro-6a,9-methanocyclohepta[a]naphthalene-4-carboxylate] | 145 ± 28.2 µM (≈ 72.5 µg/mL) | 0.14 ± 0.04 ×10⁻⁶ cm/s | 46.8 ± 3.3% | 138 to 141 °C |  | poor permeability | 63.6 ± 1.54% | 97.25 ± 0.5% | 22.4 ± 1.42% | 95.67 ± 0.76% | 91 ± 1.52% | 96.47 ± 0.26% | 50 ± 2.99% | 96.64 ± 0.24% | 21 ± 0.96% | 94.23 ± 0.31% |  | strong and selective antiproliferative effect; also recorded: performed best | modest inhibition | modest inhibition |
| CC[C@H](NC[C@@]1(O)[C@H](O)[C@@]23CCC4[C@@](C)(CCC[C@@]4(C)C(=O)OC)C2CC[C@]1(O)C3)c1ccccc1 (stereo partly drawn) [Compound 16, (4R,6aR,7R,8R,9S,11bS)-Methyl 7,8,9-Trihydroxy-4,11b-dimethyl-8-((((S)-1-phenylpropyl)amino)methyl)tetradecahydro-6a,9-methanocyclohepta[a]naphthalene-4-carboxylate] | 89.9 ± 8.5 µM (≈ 44.9 µg/mL) | 0.25 ± 0.09 ×10⁻⁶ cm/s | 44.6 ± 4.2% | 140 to 143 °C | moderate | poor permeability | 53.5 ± 1.99% | 98.33 ± 0.32% | < 20% | 96.73 ± 0.65% | 80.7 ± 2.37% | 97.1 ± 0.23% | 48.3 ± 2.17% | 96.99 ± 0.19% | < 20% | 95.12 ± 0.41% |  | higher selectivity; also recorded: performed best | moderate inhibition |  |

Second part, led by results:

| solubility kinetic at 2 h [1] | Papp at 4 h, 500 µM [2] | PAMPA-GI MR (membrane retention) [2] | melting point | Kinetic aqueous solubility, category in words [1] | Intestinal-specific permeability (Pe), category in words [2] | Structure (SMILES) | inhibition at 10 µM (HeLa cells) | inhibition at 30 µM (HeLa cells) | inhibition at 10 µM (SiHa cells) | inhibition at 30 µM (SiHa cells) | inhibition at 10 µM (MCF-7 cells) | inhibition at 30 µM (MCF-7 cells) | inhibition at 10 µM (A2780 cells) | inhibition at 30 µM (A2780 cells) | inhibition at 10 µM (NIH/3T3 fibroblasts) | inhibition at 30 µM (NIH/3T3 fibroblasts) | Antiproliferative effect on SiHa, in words (SiHa cells; 10 and 30 μM) | Antiproliferative effect / selectivity on MCF-7, in words (MCF-7 cells) | Antiproliferative effect on HeLa, in words (HeLa cells) | Antiproliferative effect on A2780, in words (A2780 cells; 10 and 30 μM) |
| --- | --- | --- | --- | --- | --- | --- | --- | --- | --- | --- | --- | --- | --- | --- | --- | --- | --- | --- | --- | --- |
| 42.1 ± 10.8 µM (≈ 20.6 µg/mL) | 0.4 ± 0.04 ×10⁻⁶ cm/s | 63.8 ± 4.9% | 195 to 197 °C | moderate |  | COC(=O)[C@]1(C)CCC[C@@]2(C)C3CC[C@]4(O)C[C@@]3(CCC21)[C@@H](O)[C@]4(O)CNCc1ccc(F)cc1 (stereo partly drawn) [Compound 9, (4R,6aR,7R,8R,9S,11bS)-Methyl 8-(((4-Fluorobenzyl)amino)methyl)-7,8,9-trihydroxy-4,11b-dimethyltetradecahydro-6a,9-methanocyclohepta[a]naphthalene-4-carboxylate] | 42.5 ± 1.42% | 96.8 ± 0.74% | 54.6 ± 3.42% | 95.17 ± 0.37% | 96.4 ± 0.47% | 96.19 ± 0.65% | 45.6 ± 3.13% | 96.97 ± 0.29% | 25.9 ± 0.94% | 92.4 ± 1.01% | modest inhibition | strong and selective antiproliferative effect; also recorded: performed best |  |  |
| 291 ± 35.5 µM (≈ 137 µg/mL) | 0.64 ± 0.03 ×10⁻⁶ cm/s | 29.8 ± 0.3% | 119 to 122 °C |  |  | COC(=O)[C@]1(C)CCC[C@@]2(C)C3CC[C@]4(O)C[C@@]3(CCC21)[C@@H](O)[C@]4(O)CNCc1ccccc1 (stereo partly drawn) [Compound 5, (4R,6aR,7R,8R,9S,11bS)-Methyl 8-((Benzylamino)methyl)-7,8,9-trihydroxy-4,11b-dimethyltetradecahydro-6a,9-methanocyclohepta[a]naphthalene-4-carboxylate] | < 20% | 95.77 ± 0.26% | < 20% | < 20% | 59.6 ± 2.73% | 96.42 ± 0.27% | 30.4 ± 2.48% | 97.15 ± 0.21% | < 20% | 101.1 ± 0.43% |  |  |  |  |
